Key:
[1] = tested on: MDA-MB-231 breast cancer cell line; experiment: induction of cell death, trypan blue exclusion assay; assay type: cell-based, human; conditions: for induction of cell death (in words): different concentrations, 48 hours
caspase-8, PARP = experiment: Western blot analysis of caspase-8 processing and PARP cleavage; conditions: MDA-MB-231, within 24 h

Compound: CN[C@@H](C)C(=O)N[C@H]1Cc2ccccc2[C@H]2CCC[C@@H](C(=O)NC(c3ccccc3)c3ccccc3)N2C1=O [Compound 8]
- induction of cell death (in words) [1]: least effective

Compound: CN[C@@H](C)C(=O)N[C@H]1Cc2ccccc2[C@H]2CC[C@@H](C(=O)N[C@@H]3CCCc4ccccc43)N2C1=O [Compound 6]
- lowest concentration inducing processing of caspase-8 and cleavage of PARP (caspase-8, PARP): 100 nM
- concentration that effectively induces cell death [1]: 100 nM
- induction of cell death (in words) [1]: most effective

Compound: CN[C@@H](C)C(=O)N[C@H]1Cc2ccccc2[C@H]2CC[C@@H](C(=O)NC(c3ccccc3)c3ccccc3)N2C1=O [Compound 5]
- induction of cell death (in words) [1]: capable of inducing cell death in a dose-dependent manner

Source: PMC2662380 (Journal of medicinal chemistry, 2008)
